Where “and” joins values, the source holds several entries; their conditions need not be identical. Identical values can stand only once.
Key:
Botrytis cinerea = assay: Treatment of strawberries (Example 5): wounded, inoculated, dipped in antifungal composition; format: in vivo; settings: 500 ppm natamycin, 600 ppm fenpropidin or both
Description: Twelve fresh, organic strawberries were used per treatment. Each strawberry was wounded with a 0.5 mm long cut and each wound was inoculated with 10 μl of a Botrytis cinerea suspension containing 1×10^5 of spores/ml. […] A composition without natamycin or fenpropidin was used as control. […] The treated strawberries were incubated in a closed box in the dark at 20° C. for 9 days. During incubation, mould growth on the strawberries was assessed in a twofold manner: […] The expected antifungal activity (E in %) of the combined antifungal composition comprising both active ingredients was calculated according to the Colby equation (Colby, 1967): […] wherein X and Y are the observed antifungal activities (in %) of the individual active ingredients X and Y, respectively.

Penicillium italicum = assay: Treatment of oranges (Examples 6-9): wounded, inoculated, wound treated with antifungal composition; format: in vivo; settings: for Observed antifungal activity O (%): oranges, 20° C.
Description: During incubation, mould growth on the strawberries was assessed in a twofold manner: (i) the number of moulded strawberries per total of 12 strawberries was counted; and (ii) the antifungal activity (in %) of the individual and combined active ingredients was determined by calculating the reduction in mould growth observed on the strawberries treated with the antifungal composition in comparison to the mould growth on the strawberries treated with the control composition. The expected antifungal activity (E in %) of the combined antifungal composition comprising both active ingredients was calculated according to the Colby equation (Colby, 1967): […]
Eight fresh, organic oranges were used per treatment. Each orange was soaked in a 180 ppm hypochlorite solution for 10 minutes, then rinsed thoroughly with fresh tap water and dried. The peel of each disinfected orange was wounded once using a cork borer according to the method described by de Lapeyre de Bellaire and Dubois (1987). Subsequently, each wound was inoculated with 10 μl of a Penicillium italicum suspension containing 5×10^5 of spores/ml. After incubation for 3 hours at 20° C., each wound and the orange peel area of 1 cm around the wound was treated with in total 150 μl of a freshly prepared aqueous antifungal composition comprising either 500 ppm natamycin (DSM Food Specialties, Delft, The Netherlands), 500 ppm fenpropidin or both. Each antifungal composition also comprised 3.2% (w/w) beeswax, 0.8% (w/w) glycerol, 0.7% (w/w) polyoxyethylene sorbitan monostearate (Tween 60), 0.1% (w/w) polyoxyethylene sorbitan monooleate (Tween 80), 0.05% (w/w) methylhydroxyethyl-cellulose (MHEC), 0.03% (w/w) anti-foaming agent, 0.02% (w/w) xanthan gum, 0.02% (w/w) citric acid, 0.01% (w/w) lactic acid and 0.01% potassium sorbate. A composition without natamycin or fenpropidin was used as control. […] The treated oranges were incubated in a closed box in the dark at 20° C. and assessed on mould growth during a 28-day incubation period. The antifungal activity (in %) of the individual and combined active ingredients was determined by calculating the reduction in mould growth observed on the oranges treated with the antifungal composition in comparison to the mould growth on the oranges treated with the control composition according to the Colby method (Colby, 1967) as described in Example 5.
The experiment was conducted as described in Example 6, except for the fact that each wounded and inoculated orange was treated with 150 μl of a freshly prepared aqueous antifungal composition comprising either 250 ppm natamycin (DSM Food Specialties, Delft, The Netherlands), 250 ppm fenpropidin or both. During the 26-day incubation period, the treated oranges were assessed on mould growth according to the two methods described in Example 5.
The experiment was conducted as described in Example 6, except for the fact that each wounded and inoculated orange was treated with 150 μl of a freshly prepared aqueous antifungal composition comprising either 500 ppm natamycin (DSM Food Specialties, Delft, The Netherlands), 400 ppm spiroxamine or both. During the 26-day incubation period, the treated oranges were assessed on mould growth according to the two methods described in Example 5.
The experiment was conducted as described in Example 6, except for the fact that each wounded and inoculated orange was treated with 150 μl of a freshly prepared aqueous antifungal composition comprising either 250 ppm natamycin (DSM Food Specialties, Delft, The Netherlands), 200 ppm spiroxamine or both. During the 26-day incubation period, the treated oranges were assessed on mould growth according to the two methods described in Example 5.

SMILES: C[C@@H]1C/C=C/C=C/C=C/C=C/[C@H](O[C@@H]2O[C@H](C)[C@@H](O)[C@H](N)[C@@H]2O)C[C@@H]2O[C@](O)(C[C@@H](O)C[C@H]3O[C@@H]3/C=C/C(=O)O1)C[C@H](O)[C@H]2C(=O)O [Natamycin, natamycin]
- Number of moulded strawberries/total number of 12 strawberries (Botrytis cinerea; Day 5, 20° C.): 11
- Number of moulded strawberries/total number of 12 strawberries (Botrytis cinerea; Day 6, 20° C.): 12
- Number of moulded oranges/total number of 8 oranges (Penicillium italicum; Day 11, 20° C., 250 ppm natamycin, 200 ppm spiroxamine or both): 5 and 5/8
- Number of moulded oranges/total number of 8 oranges (Penicillium italicum; Day 12, 20° C., 250 ppm natamycin, 200 ppm spiroxamine or both): 5 and 5/8
- Number of moulded oranges/total number of 8 oranges (Penicillium italicum; Day 13, 20° C., 250 ppm natamycin, 200 ppm spiroxamine or both): 5/8
- Number of moulded oranges/total number of 8 oranges (Penicillium italicum; Day 14-15, 20° C., 250 ppm natamycin, 200 ppm spiroxamine or both): 6/8
- Number of moulded oranges/total number of 8 oranges (Penicillium italicum; Day 14-16, 20° C., 500 ppm natamycin, 400 ppm spiroxamine or both): 5/8
- Number of moulded oranges/total number of 8 oranges (Penicillium italicum; Day 16, 20° C., 250 ppm natamycin, 200 ppm spiroxamine or both): 6 and 6/8
- Number of moulded oranges/total number of 8 oranges (Penicillium italicum; Day 18, 20° C., 250 ppm natamycin, 200 ppm spiroxamine or both): 6 and 6/8
- Number of moulded oranges/total number of 8 oranges (Penicillium italicum; Day 18, 20° C., 250 ppm natamycin, 250 ppm fenpropidin or both): 6/8
- Number of moulded oranges/total number of 8 oranges (Penicillium italicum; Day 18, 20° C., 500 ppm natamycin, 400 ppm spiroxamine or both): 6/8
- Number of moulded oranges/total number of 8 oranges (Penicillium italicum; Day 19, 20° C., 250 ppm natamycin, 250 ppm fenpropidin or both): 7/8
- Number of moulded oranges/total number of 8 oranges (Penicillium italicum; Day 19-21, 20° C., 500 ppm natamycin, 400 ppm spiroxamine or both): 6 and 6/8
- Number of moulded oranges/total number of 8 oranges (Penicillium italicum; Day 19-25, 20° C., 250 ppm natamycin, 200 ppm spiroxamine or both): 7/8
- Number of moulded oranges/total number of 8 oranges (Penicillium italicum; Day 20, 20° C., 250 ppm natamycin, 250 ppm fenpropidin or both): 7/8
- Number of moulded oranges/total number of 8 oranges (Penicillium italicum; Day 21-22, 20° C., 250 ppm natamycin, 250 ppm fenpropidin or both): 7 and 7/8
- Number of moulded oranges/total number of 8 oranges (Penicillium italicum; Day 22-23, 20° C., 500 ppm natamycin, 400 ppm spiroxamine or both): 6 and 6/8
- Number of moulded oranges/total number of 8 oranges (Penicillium italicum; Day 23-26, 20° C., 250 ppm natamycin, 250 ppm fenpropidin or both): 7 and 7/8
- Number of moulded oranges/total number of 8 oranges (Penicillium italicum; Day 26, 20° C., 250 ppm natamycin, 200 ppm spiroxamine or both): 7/8
- moulded oranges of the 8 oranges (Penicillium italicum; days 19 through 26, 250 ppm natamycin, 200 ppm spiroxamine or both): 7
- Observed antifungal activity O (%) (Penicillium italicum; day 11, 250 ppm natamycin, 200 ppm spiroxamine or both): 80%
- Observed antifungal activity O (%) (Penicillium italicum; day 12, 250 ppm natamycin, 200 ppm spiroxamine or both): 73%
- Observed antifungal activity O (%) (Penicillium italicum; day 13, 250 ppm natamycin, 200 ppm spiroxamine or both): 63%
- Observed antifungal activity O (%) (Penicillium italicum; day 14, 250 ppm natamycin, 200 ppm spiroxamine or both): 50%
- Observed antifungal activity O (%) (Penicillium italicum; day 15, 250 ppm natamycin, 200 ppm spiroxamine or both): 46%
- Observed antifungal activity O (%) (Penicillium italicum; day 16, 250 ppm natamycin, 200 ppm spiroxamine or both): 43%
- Observed antifungal activity O (%) (Penicillium italicum; day 18, 250 ppm natamycin, 200 ppm spiroxamine or both): 41%
- Observed antifungal activity O (%) (Penicillium italicum; day 18, 250 ppm natamycin, 250 ppm fenpropidin or both): 41%
- Observed antifungal activity O (%) (Penicillium italicum; day 18, 500 ppm natamycin, 400 ppm spiroxamine or both): 32%
- Observed antifungal activity O (%) (Penicillium italicum; day 19, 250 ppm natamycin, 200 ppm spiroxamine or both): 36%
- Observed antifungal activity O (%) (Penicillium italicum; day 19, 250 ppm natamycin, 250 ppm fenpropidin or both): 36%
- Observed antifungal activity O (%) (Penicillium italicum; day 19, 500 ppm natamycin, 400 ppm spiroxamine or both): 29%
- Observed antifungal activity O (%) (Penicillium italicum; day 20, 250 ppm natamycin, 200 ppm spiroxamine or both): 34%
- Observed antifungal activity O (%) (Penicillium italicum; day 20, 250 ppm natamycin, 250 ppm fenpropidin or both): 34%
- Observed antifungal activity O (%) (Penicillium italicum; day 20, 500 ppm natamycin, 400 ppm spiroxamine or both): 20%
- Observed antifungal activity O (%) (Penicillium italicum; day 21, 250 ppm natamycin, 200 ppm spiroxamine or both): 32%
- Observed antifungal activity O (%) (Penicillium italicum; day 21, 250 ppm natamycin, 250 ppm fenpropidin or both): 32%
- Observed antifungal activity O (%) (Penicillium italicum; day 21, 500 ppm natamycin, 400 ppm spiroxamine or both): 16%
- Observed antifungal activity O (%) (Penicillium italicum; day 22, 250 ppm natamycin, 200 ppm spiroxamine or both): 29%
- Observed antifungal activity O (%) (Penicillium italicum; day 22, 250 ppm natamycin, 250 ppm fenpropidin or both): 29%
- Observed antifungal activity O (%) (Penicillium italicum; day 22, 500 ppm natamycin, 400 ppm spiroxamine or both): 14%
- Observed antifungal activity O (%) (Penicillium italicum; day 22, 500 ppm natamycin, 500 ppm fenpropidin or both): 14%
- Observed antifungal activity O (%) (Penicillium italicum; day 23, 250 ppm natamycin, 200 ppm spiroxamine or both): 25%
- Observed antifungal activity O (%) (Penicillium italicum; day 23, 250 ppm natamycin, 250 ppm fenpropidin or both): 25%
- Observed antifungal activity O (%) (Penicillium italicum; day 23, 500 ppm natamycin, 400 ppm spiroxamine or both): 14%
- Observed antifungal activity O (%) (Penicillium italicum; day 23, 500 ppm natamycin, 500 ppm fenpropidin or both): 14%
- Observed antifungal activity O (%) (Penicillium italicum; day 25-26, 500 ppm natamycin, 400 ppm spiroxamine or both): 14%
- Observed antifungal activity O (%) (Penicillium italicum; day 25, 250 ppm natamycin, 200 ppm spiroxamine or both): 19%
- Observed antifungal activity O (%) (Penicillium italicum; day 25, 250 ppm natamycin, 250 ppm fenpropidin or both): 19%
- Observed antifungal activity O (%) (Penicillium italicum; day 25, 500 ppm natamycin, 500 ppm fenpropidin or both): 14%
- Observed antifungal activity O (%) (Penicillium italicum; day 26, 250 ppm natamycin, 200 ppm spiroxamine or both): 17%
- Observed antifungal activity O (%) (Penicillium italicum; day 26, 250 ppm natamycin, 250 ppm fenpropidin or both): 17%
- Observed antifungal activity O (%) (Penicillium italicum; day 26, 500 ppm natamycin, 500 ppm fenpropidin or both): 14%
- Observed antifungal activity O (%) (Penicillium italicum; day 27, 500 ppm natamycin, 500 ppm fenpropidin or both): 14%
- Observed antifungal activity O (%) (Penicillium italicum; day 28, 500 ppm natamycin, 500 ppm fenpropidin or both): 14%

Source: US20150133297A1, “NEW ANTIFUNGAL COMPOSITIONS” (DSM IP ASSETS B.V., priority 2012, published 2015)
